Experimental data from patent US8168638B2, “Pyrazinecarboxamide derivatives and plant disease controlling agents containing the same” (Nihon Nohyaku Co., Ltd., priority 2005, dated 2012).

Tested on: Blumeria graminis f. sp. hordei
Assay: Test on the controlling effect against powdery mildew of barley plant
Assay type: in vivo
Conditions: barley plant (Kantoh No. 6), foliar application, active-ingredient concentration 200 ppm, application rate 50 mL, 7 days after inoculation
Excerpt: Equation (1): Protective value (%)=A/B×100 (1) where: • A; [(Ratio of the afflicted spotted leaf surface area in non-treated section to the total leaf surface area)−(Ratio of the afflicted spotted leaf surface area in treated section to the total leaf surface area)] • B; (Ratio of the afflicted spotted leaf surface area in non-treated section to the total leaf surface area) Criteria of Judgment: 0: Less than […] in protective value 1: 10 to 19% in protective value 2: 20 to 29% in protective value 3: 30 to 39% in protective value 4: 40 to 49% in protective value 5: 50 to 59% in protective value 6: 60 to 69% in protective value 7: 70 to 79% in protective value 8: 80 to 89% in protective value 9: 90 to 99% in protective value 10: 100% in protective value A one-leaf aged barley plant (the cultivar: Kantoh No. 6) raised as a seedling in a pot of 6 cm in diameter was subjected to foliar application with a diluted emulsion of the emulsifiable concentrate of the compound of the present invention prepared in accordance with Agrochemical Formulation Example 1, which diluted emulsion was produced by diluting the concentrate with water to the specifically determined volume. […] Seven days after the inoculation, the controlling effect was assessed according the criteria of judgment as set forth in Test Example 1.

SMILES: O=C(Nc1ccccc1-c1ccc(Cl)cc1)c1cccnc1Cl [Control Compound C, 2-Chloro-N-(4′-chlorobiphenyl-2-yl)-nicotinamide]
- controlling effect assessed according to the criteria of judgment: 4 (40 to 49% in protective value)
